Target: T1, Rat CYP11B1 (Rattus norvegicus, UniProt P15393)
T1 construct: made in house; host or cells: V79-4 cell line #259 (stably selected with geneticin and hygromycin); sonicated homogenate, 500 x g supernatant
T1 sequence (P15393 25-499): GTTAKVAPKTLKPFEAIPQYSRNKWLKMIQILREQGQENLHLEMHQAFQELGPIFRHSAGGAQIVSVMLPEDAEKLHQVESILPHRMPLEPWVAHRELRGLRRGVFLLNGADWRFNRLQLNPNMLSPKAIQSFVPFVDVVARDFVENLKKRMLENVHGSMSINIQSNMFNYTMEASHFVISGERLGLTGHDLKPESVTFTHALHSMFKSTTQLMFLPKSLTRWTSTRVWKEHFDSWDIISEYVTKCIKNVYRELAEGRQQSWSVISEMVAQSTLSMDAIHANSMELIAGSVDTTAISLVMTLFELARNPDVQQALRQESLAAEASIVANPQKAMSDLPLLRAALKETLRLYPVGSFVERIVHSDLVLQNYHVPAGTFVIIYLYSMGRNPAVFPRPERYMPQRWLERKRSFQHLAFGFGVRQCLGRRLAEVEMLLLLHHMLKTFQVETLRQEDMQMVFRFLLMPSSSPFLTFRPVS
Test: In vitro rat CYP11B1 assay
Type: biochemical
Conditions: V79-4 cell homogenate, 11-deoxycorticosterone to corticosterone, SPA
Source text: Complete EDTA-free protease inhibitor tablets were obtained from Roche Applied Science (Indianapolis, Ind.). Dulbecco's modified Eagle medium (DMEM), antibiotic, geneticin, hygromycin, and fetal bovine serum (FBS) were products of Invitrogen (Carlsbad, Calif.). NADPH Regeneration Solution A and Solution B were purchased from BD Biosciences Clontech (Palo Alto, Calif.). Anti-sheep PVT SPA beads and [1,2,6,7-^3H(N)]corticosterone were acquired from Amersham (Piscataway, N.J.) and PerkinElmer (Boston, Mass.), respectively.
For enzyme preparation, #259 cells were seeded in 150 mm dishes in double-selection medium. Following 2 days of growth, cells were washed once with PBS, scraped and collected in PBS, and centrifuged at 1,300 rpm for 6 min. […] The sonication procedure was repeated 3 more times, with a 5 min rest on ice between sonications. The sonicated material was then spun at 500×g for 4 min to remove unbroken cells. The supernatant was brought to a final glycerol concentration of 5%, flash-frozen in liquid nitrogen, and stored at −80° C.
The CYP11B1 assays were performed in 96-well U-bottom non-tissue-culture-treated plates. […] Plates were then centrifuged at 2,400 rpm for 6 min, and 50 μl of supernatant was removed for measurement of corticosterone content by scintillation proximity assay (SPA).
Measurement of corticosterone was performed using a 96-well plate format. […] Anti-sheep PVT SPA beads (50 μl) were then added to each well and incubated overnight at room temperature prior to counting in a Microbeta plate counter. The amount of corticosterone in each sample was calculated by comparing with a standard curve generated using known quantities of the hormone.
Full concentration-response curves of an inhibitor were performed at least 3 times. The IC50 values were derived using a non-linear least squares curve-fitting program from IDBS XLfit.

IC50 [nM] | Structure (SMILES)
2 | COc1ccc(CN(C)C(=O)C2(c3ccc(C#N)cc3Cl)CCc3cncn32)cc1 (stereo not drawn) [5-(2-chloro-4-cyanophenyl)-N-(4-methoxybenzyl)-N-methyl-6,7-dihydro-5H-pyrrolo[1,2-c]imidazole-5-carboxamide]
0.3 | N#Cc1ccc(C2CCCCc3cncn32)c(-c2ccc(F)cc2)c1 (single isomer, unassigned) [4′-fluoro-6-(6,7,8,9-tetrahydro-5H-imidazo[1,5-a]azepin-5-yl)biphenyl-3-carbonitrile]
1 | N#Cc1ccc(C2CCCCc3cncn32)c(Br)c1 (racemic) [3-bromo-4-(6,7,8,9-tetrahydro-5H-imidazo[1,5-a]azepin-5-yl)benzonitrile racemate, 3-bromo-4-(6,7,8,9-tetrahydro-5H-imidazo[1,5-a]azepin-5-yl)benzonitrile]
